US6465641B1, “One pot synthesis of 5′-hydroxy phosphorylated nucleoside derivatives, and compounds formed thereby” (Parker Hughes Institute, priority 1999, dated 2002)
pEC50, pIC50: −log10 of the molar value.

What was measured:
sperm = conditions: read-out: EC50 value in sperm motility assays
HIV = conditions: read-out: IC50 value in HIV replication assays

pEC50 (sperm): 5.55
pIC50 (HIV): 8.30
Substance: 5-bromo-6-methoxy-5,6-dihydro-AZT-5′-(p-bromophenyl methoxyalaninyl phosphate)
